# Test results as given in patent US20140094505A1, “BIOMARKERS FOR ASSESSING TREATMENT OF SIALIC ACID DEFICIENCY DISEASES AND CONDITIONS” (Ultragenyx Pharmaceutical Inc., priority 2012, published 2014).
# System: serum biomarkers (SAT biomarkers)
# Experiment: Phase 2: change (delta) in serum biomarker levels between week 0 and week 24 per dosage group (placebo, 3 g/day, 6 g/day), Human Discovery MAP250+ v2.0
# Type: in vivo
# Set-up: key to overall trend, Epithelial-Derived Neutrophil-Activating Protein 78 (ENA-78) / overall trend, Lactoylglutathione lyase (LGL) / overall trend, Latency-Associated Peptide of Transforming Growth Factor beta 1 (LAP TGF-b1) / overall trend, Macrophage Colony-Stimulating Factor 1 (M-CSF) / overall trend, Matrix Metalloproteinase-9, total (MMP-9, total) / overall trend, Myoglobin / overall trend, Neuronal Cell Adhesion Molecule (Nr-CAM) / overall trend, Plasminogen Activator Inhibitor 1 (PAI-1) / overall trend, Receptor tyrosine-protein kinase erbB-3 (ErbB3) / overall trend, Vascular Endothelial Growth Factor C (VEGF-C) / overall trend, Chromogranin-A (CgA): normalization: level moved toward normal level and the change in 6 g/day group was larger compared to placebo; stabilization: level might still move away from normal level but at a slower rate in 6 g/day group compared to placebo
# Details: HIBM patients
# Experimental: Forty-seven (47) HIBM patient serum samples collected at week 24 from phase 2 study were tested using the Human Discovery MAP250+ v2.0 quantitative immunoassay system developed by Myriad RBM. The results were compared to the serum samples of the same 47 HIBM patients collected at week 0 (baseline) which were conducted earlier with the same immunoassay system.
# Patients were unblinded and the results were organized into the 3 assigned dosage groups, placebo (n=14), 3 g/day (n=17) and 6 g/day (n=14). The major focus of the analysis was 1) to assess changes (delta, Δ) in levels of analytes between baseline and week 24 in each dosage group, 2) whether the changes correlate to dosage levels.
# Analytes were excluded from analysis if […] of the HIBM patient samples were below least detectable dose (LDD). Within each dosage group, individual values with >5× difference to the mean of the dosage group were considered as outliers and thus removed from analysis.
# Upon treatment, levels of these analytes show an overall trend of either stabilization or normalization. […] For example, LAP TGF-b1 is an example of biomarker showing trend of normalization when the baseline level in HIBM patients is higher than normal controls, see FIG. 2. NCAM is another example of biomarker showing trend of normalization when the baseline level in HIBM patients is lower than normal controls, see FIG. 3.
compound,measurement,setting,value
"CC(=O)N[C@H]1[C@H]([C@H](O)[C@H](O)CO)OC(O)(C(=O)O)C[C@@H]1O (stereo partly drawn) [Sialic Acid, 5-N-acetylneuraminic acid]","average Δweek 0-24 (3 g/day), Chromogranin-A (CgA)","3 g/day, week 0 to week 24",64.00 ng/mL
same,"average Δweek 0-24 (3 g/day), Epithelial-Derived Neutrophil-Activating Protein 78 (ENA-78)","3 g/day, week 0 to week 24",-0.26 ng/mL
same,"average Δweek 0-24 (3 g/day), Lactoylglutathione lyase (LGL)","3 g/day, week 0 to week 24",0.25 ng/mL
same,"average Δweek 0-24 (3 g/day), Latency-Associated Peptide of Transforming Growth Factor beta 1 (LAP TGF-b1)","3 g/day, week 0 to week 24",-0.44 ng/mL
same,"average Δweek 0-24 (3 g/day), Macrophage Colony-Stimulating Factor 1 (M-CSF)","3 g/day, week 0 to week 24",0.10 ng/mL
same,"average Δweek 0-24 (3 g/day), Matrix Metalloproteinase-9, total (MMP-9, total)","3 g/day, week 0 to week 24",449.18 ng/mL
same,"average Δweek 0-24 (3 g/day), Myoglobin","3 g/day, week 0 to week 24",-48.88 ng/mL
same,"average Δweek 0-24 (3 g/day), Neuronal Cell Adhesion Molecule (Nr-CAM)","3 g/day, week 0 to week 24",-0.07 ng/mL
same,"average Δweek 0-24 (3 g/day), Plasminogen Activator Inhibitor 1 (PAI-1)","3 g/day, week 0 to week 24",0.82 ng/mL
same,"average Δweek 0-24 (3 g/day), Receptor tyrosine-protein kinase erbB-3 (ErbB3)","3 g/day, week 0 to week 24",-0.28 ng/mL
same,"average Δweek 0-24 (3 g/day), Vascular Endothelial Growth Factor C (VEGF-C)","3 g/day, week 0 to week 24",1.35 ng/mL
same,"overall trend, Chromogranin-A (CgA)","6 g/day vs placebo, week 24",stabilization
same,"overall trend, Epithelial-Derived Neutrophil-Activating Protein 78 (ENA-78)","6 g/day vs placebo, week 24",normalization
same,"overall trend, Lactoylglutathione lyase (LGL)","6 g/day vs placebo, week 24",normalization
same,"overall trend, Latency-Associated Peptide of Transforming Growth Factor beta 1 (LAP TGF-b1)","6 g/day vs placebo, week 24",normalization
same,"overall trend, Macrophage Colony-Stimulating Factor 1 (M-CSF)","6 g/day vs placebo, week 24",stabilization
same,"overall trend, Matrix Metalloproteinase-9, total (MMP-9, total)","6 g/day vs placebo, week 24",stabilization
same,"overall trend, Myoglobin","6 g/day vs placebo, week 24",normalization
same,"overall trend, Neuronal Cell Adhesion Molecule (Nr-CAM)","6 g/day vs placebo, week 24",normalization
same,"overall trend, Plasminogen Activator Inhibitor 1 (PAI-1)","6 g/day vs placebo, week 24",normalization
same,"overall trend, Receptor tyrosine-protein kinase erbB-3 (ErbB3)","6 g/day vs placebo, week 24",stabilization
same,"overall trend, Vascular Endothelial Growth Factor C (VEGF-C)","6 g/day vs placebo, week 24",stabilization
same,"average Δweek 0-24 (6 g/day), Chromogranin-A (CgA)","6 g/day, week 0 to week 24",5.83 ng/mL
same,"average Δweek 0-24 (6 g/day), Epithelial-Derived Neutrophil-Activating Protein 78 (ENA-78)","6 g/day, week 0 to week 24",-0.42 ng/mL
same,"average Δweek 0-24 (6 g/day), Lactoylglutathione lyase (LGL)","6 g/day, week 0 to week 24",-8.27 ng/mL
same,"average Δweek 0-24 (6 g/day), Latency-Associated Peptide of Transforming Growth Factor beta 1 (LAP TGF-b1)","6 g/day, week 0 to week 24",-1.00 ng/mL
same,"average Δweek 0-24 (6 g/day), Macrophage Colony-Stimulating Factor 1 (M-CSF)","6 g/day, week 0 to week 24",0.02 ng/mL
same,"average Δweek 0-24 (6 g/day), Matrix Metalloproteinase-9, total (MMP-9, total)","6 g/day, week 0 to week 24",444.64 ng/mL
same,"average Δweek 0-24 (6 g/day), Myoglobin","6 g/day, week 0 to week 24",-38.00 ng/mL
same,"average Δweek 0-24 (6 g/day), Neuronal Cell Adhesion Molecule (Nr-CAM)","6 g/day, week 0 to week 24",0.02 ng/mL
same,"average Δweek 0-24 (6 g/day), Plasminogen Activator Inhibitor 1 (PAI-1)","6 g/day, week 0 to week 24",-0.36 ng/mL
same,"average Δweek 0-24 (6 g/day), Receptor tyrosine-protein kinase erbB-3 (ErbB3)","6 g/day, week 0 to week 24",-0.16 ng/mL
same,"average Δweek 0-24 (6 g/day), Vascular Endothelial Growth Factor C (VEGF-C)","6 g/day, week 0 to week 24",6.43 ng/mL
